The values that follow come from paper PMC6207715, “Determination of extended substrate specificity of the MALT1 as a strategy for the design of potent substrates and activity-based probes” (Scientific Reports, 2018).

Holding throughout (assay type): biochemical
The subject of experiment [1] is MALT1 in RAW 264.7 cell lysates. The experiment in a line: Labeling of active MALT1 in RAW 264.7 cell lysates. The note with it: RAW 264.7 lysates pretreated with 1 µL of 10 mM mepazine, then 500 nM PKG105. The procedure: Figure 3 Probe to detect active MALT1. Panel a. Structure of the MALT1 probe (PKG105). Panel b. RAW 264.7 cell lysates were incubated with PKG105 at various concentrations. As a control, lysates were pretreated with mepazine, followed by incubation with probe. Lysates that were not treated with mepazine were also used. SDS-PAGE was performed at 165 V. Fluorescence was scanned using the 700 nm channel (LI-COR). Gels are representative of at least two replicates. TEXT PRINTED IN THE PICTURE: (a) PKG105: kobs/I = 92,000 M^-1s^-1
Twenty-five microliters of RAW 264.7 cell lysates (from 5 * 10^6 cells/mL) were incubated with PKG105 at concentrations ranging from 8 to 500 nM. As controls, cells that were not incubated with probe or cells that were pretreated with 1 µL of 10 mM mepazine were treated with 500 nM PKG105. The lysates were incubated with the probe for 30 minutes at 37 °C, followed by denaturation in 3 × SDS-loading buffer for 5 minutes at 95 °C. SDS-PAGE was performed under reducing conditions for 37 minutes at 165 V. The fluorescence signal in the gel was measured using a Li-Cor (Odyssey®) at a wavelength of 700 nm.

Experiment [2] concerns the target T1, MALT1 (Homo sapiens, UniProt Q9UDY8).
T1 sequence (Q9UDY8 1-824): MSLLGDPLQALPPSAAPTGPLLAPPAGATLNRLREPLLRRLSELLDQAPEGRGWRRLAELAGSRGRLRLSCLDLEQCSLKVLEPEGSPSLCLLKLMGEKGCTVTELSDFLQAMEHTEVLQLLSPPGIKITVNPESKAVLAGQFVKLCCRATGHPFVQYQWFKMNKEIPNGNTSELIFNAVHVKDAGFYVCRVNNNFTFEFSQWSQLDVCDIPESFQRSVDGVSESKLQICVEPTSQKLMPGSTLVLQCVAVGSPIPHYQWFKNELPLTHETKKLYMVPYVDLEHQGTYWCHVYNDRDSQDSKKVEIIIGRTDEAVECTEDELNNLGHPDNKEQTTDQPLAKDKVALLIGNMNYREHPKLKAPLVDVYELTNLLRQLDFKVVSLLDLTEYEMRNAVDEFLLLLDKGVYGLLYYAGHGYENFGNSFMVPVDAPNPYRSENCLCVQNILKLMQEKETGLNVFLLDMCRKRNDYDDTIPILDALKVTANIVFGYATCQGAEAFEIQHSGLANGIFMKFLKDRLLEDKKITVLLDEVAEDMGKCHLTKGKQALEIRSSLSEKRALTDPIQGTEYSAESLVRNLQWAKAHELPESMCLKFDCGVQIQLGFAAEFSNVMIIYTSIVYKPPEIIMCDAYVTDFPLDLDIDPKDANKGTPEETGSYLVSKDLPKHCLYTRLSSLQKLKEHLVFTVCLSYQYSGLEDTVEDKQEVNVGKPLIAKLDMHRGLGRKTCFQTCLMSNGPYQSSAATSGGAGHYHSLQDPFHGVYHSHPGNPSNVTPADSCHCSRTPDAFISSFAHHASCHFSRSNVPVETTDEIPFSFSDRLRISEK
The experiment in a line: Kinetic assay of ACC fluorogenic substrates (kcat, Km, kcat/Km). The procedure: Figure 2 MALT1 substrate activity. Panel a. kcat/Km values for MALT1 substrates compared with that of the reference substrate (ALVSR). MALT1 was incubated at 37 °C for 30 minutes and added to the wells containing the substrate at varying concentrations. Relative fluorescence units were measured over time at excitation/emission wavelengths of 355/460 nm for at least 10 minutes. The data represent averages of three separate measurements, and error bars represent standard deviations. Panel b. Structure of our best (lower panel) and the reference (upper panel) MALT1 fluorogenic substrate.
(§1) All kinetic assays were performed with a Spectra Max Gemini XPS spectrofluorimeter (Molecular Devices) and 96-well Corning plates. The measurement characteristics were as follows: 37 °C, excitation/emission wavelength of 355/460 nm, cutoff of 455 nm, and varying concentrations of substrates and enzyme. The assay buffer was prepared at 23 °C and contained 50 mM HEPES (2-[4-(2-hydroxyethyl)piperazin-1-yl]ethanesulfonic acid), 100 mM NaCl, 0.9 M sodium citrate and 10 mM dithiothreitol (DTT) (pH 7.5). MALT1^FL or MALT1^CD were preincubated for 30 minutes at 37 °C before being added to wells containing substrate. Next, the increase in fluorescence was recorded over the time. Only the linear portions of the curves were used for calculations. The kcat and Km values were calculated using GraphPad Prism and Microsoft Excel software. All measurements were repeated three times, and the data presented are averages of these replicates. […]
was carried out after each coupling and Fmoc deprotection step. The N terminus was protected with an acetyl group using 5 eq AcOH, 5 eq HBTU, and 5 eq DIPEA in DMF.
After solvent removal, the resin was washed six times with DMF in order to remove excess reagents, three times with DCM, and three times with MeOH and then dried over P2O5 and cleaved from the resin with a TFA/TIPS/H2O mixture (%, v/v/v, 95:2.5:2.5).
The crude product was purified by HPLC and lyophilized. The purity of each substrate was confirmed by analytical HPLC, and each substrate was analyzed using HRMS.
(§2) Substrates were dissolved in peptide-grade DMSO to a concentration of 20 mM and stored at -80°C until use.
(§3) Calculation of kcat, Km and kcat/Km values
(§4) Kinetic parameters were calculated under the same conditions as the library with slight modification. The total reaction volume in each well was 100 μL. The substrate and enzyme concentrations used ranged from 3.90 μM to 150 μM and 40 μM, respectively.
(§5) The increase in relative fluorescence units was monitored for 20-30 minutes, and only the linear parts of the curves were used to determine the rate of the reaction. The kcat and Km values were calculated using GraphPad Prism software. All measurements were repeated three times using the appropriate concentration of the enzyme, and the data presented are averages of these repetitions.

The target of experiment [3] is T1, MALT1. Kind of experiment: P5 library screening (Ac-P5-LVSR-ACC). The note with it: 100 nM MALT1, 1 µM substrate, 37 °C; 355/460 nm; average of three. On the procedure:
Figure 1 MALT1 S5-S2 substrate preferences. Panel a. Substrate preferences of the MALT1 S4-S2 pockets; 100 μM library component was treated with 130 nM active site-titrated MALT1 in assay buffer containing 50 mM HEPES, 100 mM NaCl, 0.9 M sodium citrate and 10 mM DTT at pH 7.5. Panel b. Structures of the preferred amino acid residues at the P4-P2 positions of MALT1. Panel c. MALT1 P5 specificity. Specificity profile of MALT1 was determined with the library of general structure Ac-P5-LVSR-ACC; 100 nM MALT1 was incubated at 37 °C for 10 minutes, followed by the addition of 1 µM substrate. Relative fluorescence units were measured over time at excitation/emission wavelengths of 355/460 nm for at least 10 minutes. The data represent averages of three separate measurements, and error bars represent standard deviations.

Experiment [4] addresses T2, MALT1^FL (Homo sapiens, UniProt Q9UDY8).
T2 construct: treating full-length MALT1 (MALT1^FL), the MALT1 catalytic domain (MALT1^CD)
T2 sequence (Q9UDY8 1-824): T1 sequence (Q9UDY8 1-824)
The experiment in a line: Kinetic assay of IQF substrates, full-length enzyme. The note with it: IQF substrate, ACC/Lys(Dnp) pair; 37 °C, assay buffer pH 7.5; 355/460 nm; average of three. On the procedure:
as §1, §2, §3, §4, §5

Experiment [5] addresses T3, MALT1^CD (Homo sapiens, UniProt Q9UDY8).
T3 construct: the MALT1 catalytic domain (MALT1^CD)
T3 sequence (Q9UDY8 348-562 limits assumed): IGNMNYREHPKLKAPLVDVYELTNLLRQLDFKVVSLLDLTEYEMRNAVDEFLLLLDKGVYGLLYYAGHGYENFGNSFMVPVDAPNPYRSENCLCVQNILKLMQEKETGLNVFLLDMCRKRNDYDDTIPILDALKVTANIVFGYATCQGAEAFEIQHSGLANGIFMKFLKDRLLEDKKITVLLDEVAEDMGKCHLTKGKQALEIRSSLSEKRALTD
Kind of experiment: Kinetic assay of IQF substrates, catalytic domain. The note with it: IQF substrate, ACC/Lys(Dnp) pair; 37 °C, assay buffer pH 7.5; 355/460 nm; average of three. On the procedure:
as §1, §2, §3, §4, §5

Setting [6] is: 37 °C, 50 mM HEPES, 100 mM NaCl, 0.9 M sodium citrate, 10 mM DTT, pH 7.5, substrate 3.90-150 μM, ACC fluorescence 355/460 nm, average of three measurements.

Non-standard residues stand in square brackets, D forms with d. *: point of attachment. ACC = NC(=O)Cc1cc(=O)oc2cc(N*)ccc12; Abu = CC[C@H](N)C(=O)O

In the case of `CN1CCCC(CN2c3ccccc3Sc3ccccc32)C1` (stereo not shown) [Mepazine, reference compound], the “effect of inhibitor pretreatment on probe labeling” value in experiment [1] is reported as “inhibited MALT1”.

As for “Ac-ALVSR-{ACC} (SMILES CC(=O)N[C@@H](C)C(=O)N[C@@H](CC(C)C)C(=O)N[C@H](C(=O)N[C@@H](CO)C(=O)N[C@@H](CCCNC(=N)N)C(=O)Nc1ccc2c(CC(N)=O)cc(=O)oc2c1)C(C)C) [Ac-Ala-LVSR-ACC, reference compound]”, in experiment [2] (setting [6]), the Km came out at 9.45 ± 2.46 µM and the kcat was determined as 0.089 ± 0.033 s⁻¹.

As for “Ac-KLVSR-{ACC} (SMILES CC(=O)N[C@@H](CCCCN)C(=O)N[C@@H](CC(C)C)C(=O)N[C@H](C(=O)N[C@@H](CO)C(=O)N[C@@H](CCCNC(=N)N)C(=O)Nc1ccc2c(CC(N)=O)cc(=O)oc2c1)C(C)C) [Ac-Lys-LVSR-ACC]”, in experiment [2] (setting [6]), the Km amounted to 25.5 ± 3.56 µM and the kcat was 0.12 ± 0.0010 s⁻¹.

With Ac-Phe(guan)-LVPR-ACC-OH, the kcat/Km in experiment [2] (setting [6]) was 28,000 s^−1M^−1. Also, in experiment [2] (estimated), the “rate of substrate hydrolysis (kcat/Km)” value is 28,000 M^−1s^−1. In addition, in experiment [2] (times higher), the “kcat/Km relative to the best reported substrate to date” value is “approximately 3.5 times”.

On to “Ac-RLVSR-{ACC} (SMILES CC(=O)N[C@@H](CCCNC(=N)N)C(=O)N[C@@H](CC(C)C)C(=O)N[C@H](C(=O)N[C@@H](CO)C(=O)N[C@@H](CCCNC(=N)N)C(=O)Nc1ccc2c(CC(N)=O)cc(=O)oc2c1)C(C)C) [Ac-Arg-LVSR-ACC]”, for which, in experiment [2] (setting [6]), the Km amounted to 19.06 ± 0.05 µM and the kcat amounted to 0.12 ± 0.0003 s⁻¹.

Take “Ac-TLVSR-{ACC} (SMILES CC(=O)N[C@H](C(=O)N[C@@H](CC(C)C)C(=O)N[C@H](C(=O)N[C@@H](CO)C(=O)N[C@@H](CCCNC(=N)N)C(=O)Nc1ccc2c(CC(N)=O)cc(=O)oc2c1)C(C)C)[C@@H](C)O) [Ac-Thr-LVSR-ACC]”: in experiment [2] (setting [6]), the Michaelis constant (Km) was found to be 22.4 ± 9.94 µM and the turnover number (kcat) amounted to 0.12 ± 0.0050 s⁻¹.

Regarding Ac-Y(Bzl)-L-V-S-R-ACC-OH, the “activity at the P5 position in the library screen” value in experiment [3] was “least active”.

In the case of “Ac-[Abu]LVSR-{ACC} (SMILES CC[C@H](NC(C)=O)C(=O)N[C@@H](CC(C)C)C(=O)N[C@H](C(=O)N[C@@H](CO)C(=O)N[C@@H](CCCNC(=N)N)C(=O)Nc1ccc2c(CC(N)=O)cc(=O)oc2c1)C(C)C) [Ac-Abu-LVSR-ACC]”, in experiment [2] (setting [6]), the Km is 22.15 ± 0.01 µM and the kcat turned out to be 0.19 ± 0.0295 s⁻¹.

With “Ac-[dA]LVSR-{ACC} (SMILES CC(=O)N[C@H](C)C(=O)N[C@@H](CC(C)C)C(=O)N[C@H](C(=O)N[C@@H](CO)C(=O)N[C@@H](CCCNC(=N)N)C(=O)Nc1ccc2c(CC(N)=O)cc(=O)oc2c1)C(C)C) [Ac-D-Ala-LVSR-ACC]”, in experiment [2] (setting [6]), the Km turned out to be 24.4 ± 6.97 µM and the kcat turned out to be 0.076 ± 0.034 s⁻¹.

With “Ac-[dV]LVSR-{ACC} (SMILES CC(=O)N[C@@H](C(=O)N[C@@H](CC(C)C)C(=O)N[C@H](C(=O)N[C@@H](CO)C(=O)N[C@@H](CCCNC(=N)N)C(=O)Nc1ccc2c(CC(N)=O)cc(=O)oc2c1)C(C)C)C(C)C) [Ac-D-Val-LVSR-ACC]”, in experiment [2] (setting [6]), the Michaelis constant (Km) was found to be 19.2 ± 2.5 µM and the turnover number (kcat) was found to be 0.15 ± 0.012 s⁻¹.

On to “H2N-ACC-Ahx-A-L-V-S-R–G-Abu-K(Dnp)G-OH [Substrate M2]”, for which the “kcat/Km, MALT1^FL” value in experiment [4] is reported as 5.5 * 10^3 ± 291 M^−1s^−1. Also, the “kcat/Km, MALT1^CD” value in experiment [5] was 2.6 * 10^3 ± 38 M^−1s^−1.

Regarding “H2N-ACC-Ahx-A-L-V-S-R–G-Nva-K(Dnp)G-OH [Substrate M1]”, the “kcat/Km, MALT1^FL” value in experiment [4] is given as 4.8 * 10^3 ± 362 M^−1s^−1. Also, in experiment [5], the “kcat/Km, MALT1^CD” value was 3.5 * 10^3 ± 165 M^−1s^−1.

Consider “H2N-ACC-Ahx-A-L-V-S-R–G-Thr-K(Dnp)G-OH [Substrate M3]”, for which the “kcat/Km, MALT1^FL” value in experiment [4] was 6.3 * 10^3 ± 311 M^−1s^−1. For the same compound, the “kcat/Km, MALT1^CD” value in experiment [5] is given as 2.8 * 10^3 ± 101 M^−1s^−1.
